“And” between values parts separate entries of the source, which are not always exact repeats. Equal entries are not always repeated.
Test: BET specific surface area analysis
Assay type: physicochemical
Conditions: further BET measurement accompanying the particle size analysis (Table 23)
Method: BET specific surface area analysis was conducted on various batches of precipitated amorphous Letermovir. The same was done on a batch of Letermovir (named BXR3GBL) produced according to Example 11 of WO 2006/133822. The results of the analysis are shown below in Table 22: The particular BET method is characterized by the following parameter: Principle: Nitrogen adsorption at 77 K; method according to Brunauer, Emmett and Teller Method: volumetric method (method II) according to USP <846> Instrument: Tristar 3000/VacPrep 061 (Micromeritics) Sample mass: approximately 1.5-2.5 g Sample preparation: degassing for 2 h at 40° C. under vacuum (final vacuum <2.7 Pa) Pressure range p/p0: 0.05-0.15 (3 data points).

Structure (SMILES)	Specific Surface Area (SSA), m^2/g
COc1cccc(N2CCN(C3=Nc4c(F)cccc4[C@H](CC(=O)O)N3c3cc(C(F)(F)F)ccc3OC)CC2)c1 [Batch 1300735]	2.18 m^2/g
COc1cccc(N2CCN(C3=Nc4c(F)cccc4[C@H](CC(=O)O)N3c3cc(C(F)(F)F)ccc3OC)CC2)c1 [Batch 1300750]	2.1 m^2/g
COc1cccc(N2CCN(C3=Nc4c(F)cccc4[C@H](CC(=O)O)N3c3cc(C(F)(F)F)ccc3OC)CC2)c1 [Batch BXR3GBL, reference compound]	1.55 m^2/g

Same assay, conditions: isolated API

Structure (SMILES)	specific surface area
COc1cccc(N2CCN(C3=Nc4c(F)cccc4[C@H](CC(=O)O)N3c3cc(C(F)(F)F)ccc3OC)CC2)c1 [precipitated Letermovir, (S)-{8-fluoro-2-[4-(3-methoxyphenyl)piperazin-1-yl]-3-(2-methoxy-5-trifluormethylphenyl)-3,4-dihydroquinazolin-4-yl}acetic acid]	1.2-2 m^2/g
COc1cccc(N2CCN(C3=Nc4c(F)cccc4[C@H](CC(=O)O)N3c3cc(C(F)(F)F)ccc3OC)CC2)c1 [roller dried Letermovir]	< 1 m^2/g

Same assay, conditions: nitrogen adsorption at 77 K

Structure (SMILES)	Specific Surface Area (SSA), m^2/g; BET value on average
COc1cccc(N2CCN(C3=Nc4c(F)cccc4[C@H](CC(=O)O)N3c3cc(C(F)(F)F)ccc3OC)CC2)c1 [Batch 40474375]	1.46 m^2/g
COc1cccc(N2CCN(C3=Nc4c(F)cccc4[C@H](CC(=O)O)N3c3cc(C(F)(F)F)ccc3OC)CC2)c1 [Batch 40474463]	1.23 m^2/g
COc1cccc(N2CCN(C3=Nc4c(F)cccc4[C@H](CC(=O)O)N3c3cc(C(F)(F)F)ccc3OC)CC2)c1 [Batch 40475297]	1.25 m^2/g
COc1cccc(N2CCN(C3=Nc4c(F)cccc4[C@H](CC(=O)O)N3c3cc(C(F)(F)F)ccc3OC)CC2)c1 [Batch 40479189]	1.26 m^2/g
COc1cccc(N2CCN(C3=Nc4c(F)cccc4[C@H](CC(=O)O)N3c3cc(C(F)(F)F)ccc3OC)CC2)c1 [Batch 40479198]	2.09 m^2/g
COc1cccc(N2CCN(C3=Nc4c(F)cccc4[C@H](CC(=O)O)N3c3cc(C(F)(F)F)ccc3OC)CC2)c1 [Batch 40479200]	1.30 m^2/g
COc1cccc(N2CCN(C3=Nc4c(F)cccc4[C@H](CC(=O)O)N3c3cc(C(F)(F)F)ccc3OC)CC2)c1 [Batch 40479201]	1.97 m^2/g
COc1cccc(N2CCN(C3=Nc4c(F)cccc4[C@H](CC(=O)O)N3c3cc(C(F)(F)F)ccc3OC)CC2)c1 [Batch 40479202]	1.69 m^2/g
COc1cccc(N2CCN(C3=Nc4c(F)cccc4[C@H](CC(=O)O)N3c3cc(C(F)(F)F)ccc3OC)CC2)c1 [Batch 40479248]	1.45 m^2/g
COc1cccc(N2CCN(C3=Nc4c(F)cccc4[C@H](CC(=O)O)N3c3cc(C(F)(F)F)ccc3OC)CC2)c1 [Batch 40479326]	1.76 m^2/g
COc1cccc(N2CCN(C3=Nc4c(F)cccc4[C@H](CC(=O)O)N3c3cc(C(F)(F)F)ccc3OC)CC2)c1 [Batch 40479434]	1.48 m^2/g
COc1cccc(N2CCN(C3=Nc4c(F)cccc4[C@H](CC(=O)O)N3c3cc(C(F)(F)F)ccc3OC)CC2)c1 [Batch 40479463]	1.45 m^2/g
COc1cccc(N2CCN(C3=Nc4c(F)cccc4[C@H](CC(=O)O)N3c3cc(C(F)(F)F)ccc3OC)CC2)c1 [Batch 40483515]	1.03 m^2/g
COc1cccc(N2CCN(C3=Nc4c(F)cccc4[C@H](CC(=O)O)N3c3cc(C(F)(F)F)ccc3OC)CC2)c1 [Batch 40483516]	1.28 m^2/g
COc1cccc(N2CCN(C3=Nc4c(F)cccc4[C@H](CC(=O)O)N3c3cc(C(F)(F)F)ccc3OC)CC2)c1 [Batch 40483517]	1.87 m^2/g and 1.83 m^2/g
COc1cccc(N2CCN(C3=Nc4c(F)cccc4[C@H](CC(=O)O)N3c3cc(C(F)(F)F)ccc3OC)CC2)c1 [Batch BXR3GBL, reference compound]	0.64 m^2/g

Test: Laser diffraction particle size distribution analysis (Mastersizer 2000)
Assay type: physicochemical
Conditions: Mastersizer 2000, dry dispersion, average of four analyses
Method: Laser diffraction particle size distribution analysis was conducted on two batches of precipitated amorphous Letermovir of the invention and on a batch of amorphous Letermovir (referred to as BXR3GBL) produced according to Example 11 of WO 2006/133822 while using laser diffraction technique of the Mastersizer 2000 (Malvern Instruments). The results of the analysis are presented in FIG. 9(a-c) in the form of three particle size distribution charts and the numeric part of the results is shown below in Table 23: The particular PSD analysis method is characterized by the following parameter: Device: Mastersizer 2000 with dry dispersion Modus: Fraunhofer; weight-in quantity: 0.3-0.4 g Measurement time: 20 seconds Background time: 6 seconds Obscuration limits: 0.5 to 6% Sample tray: micro volume; small sieve with balls Feed rate: 45-55% Dispersive pressure: 2.5 bar Four independent analyses were performed and the results were averaged.

Structure (SMILES)	Particle Size Median Value d(0.5), μm
COc1cccc(N2CCN(C3=Nc4c(F)cccc4[C@H](CC(=O)O)N3c3cc(C(F)(F)F)ccc3OC)CC2)c1 [Batch 1300735]	8.880 μm
COc1cccc(N2CCN(C3=Nc4c(F)cccc4[C@H](CC(=O)O)N3c3cc(C(F)(F)F)ccc3OC)CC2)c1 [Batch 1300750]	9.383 μm
COc1cccc(N2CCN(C3=Nc4c(F)cccc4[C@H](CC(=O)O)N3c3cc(C(F)(F)F)ccc3OC)CC2)c1 [Batch BXR3GBL, reference compound]	21.607 μm
